The target of this assay is T1, PI3Kα (p110α) (Homo sapiens, UniProt P42336).
T1 construct: gene PIK3CA; N-6*His tag-TEV site-p85α (318–615) - GSPGISGGGGG-full length p110α fusion protein; with p85α (318–615), PIK3R1
As to the kind of experiment: X-ray co-crystal structure (apo crystals soaked); IC50 from PI3K HTRF assay on purified enzyme. It is filed as biochemical. From the text:
X-ray co-crystal structure (apo crystals soaked); IC50 from PI3K HTRF assay on purified enzyme on PI3Kα (p110α) | The crystal structure of PI3Kα–YXY-4F verified that the compound YXY-4F bound to the ATP-binding pocket
For orientation: In TR-FRET formats the signal depends on donor and acceptor labels being close together.

T1 sequence (P42336 whole entry, the tested form may be a part): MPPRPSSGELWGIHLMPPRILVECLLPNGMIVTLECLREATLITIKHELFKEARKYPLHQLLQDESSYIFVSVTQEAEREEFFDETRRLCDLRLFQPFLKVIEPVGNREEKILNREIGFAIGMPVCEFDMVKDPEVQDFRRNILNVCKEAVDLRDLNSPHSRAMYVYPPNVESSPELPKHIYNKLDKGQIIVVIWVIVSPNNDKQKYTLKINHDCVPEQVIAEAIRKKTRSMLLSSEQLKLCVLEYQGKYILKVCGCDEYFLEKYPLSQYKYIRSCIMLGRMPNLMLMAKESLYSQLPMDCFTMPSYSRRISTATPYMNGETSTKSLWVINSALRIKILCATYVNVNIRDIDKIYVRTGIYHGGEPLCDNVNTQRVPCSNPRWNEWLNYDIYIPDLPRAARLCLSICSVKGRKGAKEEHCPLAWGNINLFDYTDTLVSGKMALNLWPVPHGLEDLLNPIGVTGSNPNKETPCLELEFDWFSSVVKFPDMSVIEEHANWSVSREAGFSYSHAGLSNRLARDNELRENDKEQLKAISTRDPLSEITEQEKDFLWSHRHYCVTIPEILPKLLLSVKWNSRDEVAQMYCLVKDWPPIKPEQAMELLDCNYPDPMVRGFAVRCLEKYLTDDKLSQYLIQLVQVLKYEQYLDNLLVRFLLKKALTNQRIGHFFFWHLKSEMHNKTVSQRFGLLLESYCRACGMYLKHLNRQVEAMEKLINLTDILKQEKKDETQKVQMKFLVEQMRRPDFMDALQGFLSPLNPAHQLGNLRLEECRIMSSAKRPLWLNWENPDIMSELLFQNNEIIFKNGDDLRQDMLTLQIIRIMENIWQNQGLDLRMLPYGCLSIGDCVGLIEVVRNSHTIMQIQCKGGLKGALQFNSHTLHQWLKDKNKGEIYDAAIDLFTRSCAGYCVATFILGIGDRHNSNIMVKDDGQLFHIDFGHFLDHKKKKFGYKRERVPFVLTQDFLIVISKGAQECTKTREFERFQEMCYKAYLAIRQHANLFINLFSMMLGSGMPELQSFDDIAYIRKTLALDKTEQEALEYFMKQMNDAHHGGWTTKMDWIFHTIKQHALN
T1 sequence (P27986 318-615 partner): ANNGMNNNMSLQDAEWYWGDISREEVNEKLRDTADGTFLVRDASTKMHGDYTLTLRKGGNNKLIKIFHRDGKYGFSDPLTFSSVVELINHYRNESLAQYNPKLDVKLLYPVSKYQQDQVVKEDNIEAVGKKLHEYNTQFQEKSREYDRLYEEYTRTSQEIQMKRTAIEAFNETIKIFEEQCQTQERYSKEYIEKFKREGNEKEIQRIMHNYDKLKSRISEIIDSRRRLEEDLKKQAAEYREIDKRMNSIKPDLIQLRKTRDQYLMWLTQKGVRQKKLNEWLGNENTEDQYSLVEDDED

Turning to `Oc1cc(NCc2ccc(F)cc2)cc(-c2nc(N3CCOCC3)c3sccc3n2)c1` [YXY-4F], the half-maximal inhibitory concentration (IC50) (in general, the concentration at which inhibition is half-maximal) was 1020 ± 5 nM.

The values are drawn from article PMC5674032, “New Insights into PI3K Inhibitor Design using X-ray Structures of PI3Kα Complexed with a Potent Lead Compound” (Scientific Reports, 2017).
